Values quoted from earlier work in patent US6900176B2, “Pest control agents/depsipeptides” (priority 1999, dated 2005).

Tested on: silkworms
Conditions: known from the literature (Kanaoka et al. 1979; JP 05 271 013)

SMILES	insecticidal activity against silkworms
CC(C)C[C@H]1C(=O)O[C@H](Cc2ccccc2)C(=O)N(C)[C@@H](CC(C)C)C(=O)O[C@H](C)C(=O)N(C)[C@@H](CC(C)C)C(=O)O[C@H](Cc2ccccc2)C(=O)N(C)[C@@H](CC(C)C)C(=O)O[C@H](C)C(=O)N1C [PF1022A]	insecticidal activity
CC(C)C[C@H]1C(=O)O[C@H](C(C)C)C(=O)N(C)[C@@H](CC(C)C)C(=O)O[C@H](C(C)C)C(=O)N(C)[C@@H](CC(C)C)C(=O)O[C@H](C(C)C)C(=O)N(C)[C@@H](CC(C)C)C(=O)O[C@H](C(C)C)C(=O)N1C [bassianolide]	insecticidal activity
